Measurements as given in ChEMBL document CHEMBL5634149, “Covalent and noncovalent strategies for targeting Lys102 in HIV-1 reverse transcriptase” (Eur J Med Chem, 2023).

What was measured:
[1] = target: Human immunodeficiency virus type 1 reverse transcriptase (Human immunodeficiency virus 1, UniProt Q72547); assay: Inhibition of HIV1 reverse transcriptase using r(A)350 template and d(T)16 primer as substrate preincubated for 1 hr before adding substrate by PicoGreen EnzChek Reverse Transcriptase Assay
[2] = system: Human immunodeficiency virus 1; assay: Anti-viral activity against wild type HIV1 strain IIIB infected in human MT2 cells assessed as protection of cells from infection; assay type: functional, organism-based; conditions: Human immunodeficiency virus 1, IIIB
MT2 = assay: Cytotoxicity against human MT2 cells assessed as inhibition of cell growth; assay type: toxicity, cell-based
[3] = Therapeutic index, ratio of CC50 for cytotoxicity against human MT2 cells to EC50 for antiviral activity against wild type HIV1 strain IIIB infected in human MT2 cells assessed as protection of cells from infection; assay type: toxicity, cell-based; conditions: read-out: TI

`C=CC(=O)NCCc1ccc(Cl)c(Oc2cc(Cl)cc(C#N)c2)c1` showed an IC50 [1] of 400 nM, an EC50 [2] of 3100 nM and a CC50 (MT2) of 29000 nM.
For `N#Cc1cc(Cl)cc(Oc2ccc(Cl)cc2OCCn2cc(Cl)c(=O)[nH]c2=O)c1`, the EC50 [2] was 17 nM.
`C=CC(=O)N(C)CCOc1cc(Cl)ccc1Oc1cccc2cc(C#N)ccc12` showed an IC50 [1] of 25 nM, an EC50 [2] of 17 nM and a CC50 (MT2) of 16000 nM.
Compound `C=CC(=O)n1c(=O)n(CCOc2cc(Cl)ccc2Oc2cc(Cl)cc(C#N)c2)c2ccccc21` has an IC50 [1] of 150 nM, an EC50 [2] of 470 nM and a CC50 (MT2) of 8000 nM.
`CN(C)C(=O)CCOc1ccccc1Oc1cccn2cc(C#N)cc12` showed an IC50 [1] of 20 nM, an EC50 [2] of 36 nM and a CC50 (MT2) greater than 100000 nM.
In the case of `CN(CCOc1ccc(Cl)c(Oc2cc(Cl)cc(C#N)c2)c1)C(=O)CCl`, the IC50 [1] is reported as 1200 nM and the CC50 (MT2) is reported as 1300 nM.
Compound `N#Cc1cc(Cl)cc(Oc2ccc(Cl)cc2OCCc2ccccc2)c1` has an IC50 [1] of 60 nM, an EC50 [2] of 3100 nM and a CC50 (MT2) greater than 100000 nM.
Work on `C=CC(=O)N(C)CCOc1ccc(Cl)c(Oc2cccc3cc(C#N)ccc23)c1` yielded an IC50 [1] of less than 10 nM, an EC50 [2] of 8500 nM and a CC50 (MT2) of 25000 nM.
Work on `N#Cc1cc2c(Oc3ccccc3OCCC(=O)N3CCOCC3)cccn2c1` yielded an IC50 [1] of 60 nM, an EC50 [2] of 190 nM and a CC50 (MT2) greater than 100000 nM.
Work on `CN(C)C(=O)CCOc1ccccc1Oc1cccc2cc(C#N)ccc12` yielded an IC50 [1] of 20 nM, an EC50 [2] of 3 nM and a CC50 (MT2) of 33000 nM.
Work on `C=CC(=O)N(C)CCOc1cc(Cl)ccc1Oc1cc(Cl)cc(C#N)c1` yielded an IC50 [1] of 60 nM, an EC50 [2] of 400 nM and a CC50 (MT2) of 27000 nM.
In the case of `C=CC(=O)NCCOc1ccc(Cl)c(Oc2cc(Cl)cc(C#N)c2)c1`, the IC50 [1] is reported as 1100 nM and the CC50 (MT2) is reported as 32000 nM.
With `C=CC(=O)n1c(=O)n(CCOc2ccccc2Oc2cccc3cc(C#N)ccc23)c2ccccc21` the IC50 [1] was less than 5 nM, the EC50 [2] was 1 nM and the CC50 (MT2) was 4500 nM. The selectivity ratio [3] was 9000.
`N#Cc1cc(Cl)cc(Oc2ccc(Cl)cc2OCc2ccccc2)c1` showed an IC50 [1] of 1300 nM, an EC50 [2] of 41000 nM and a CC50 (MT2) greater than 100000 nM.
Compound `C=CC(=O)N(C)CCOc1ccc(Cl)c(Oc2cccn3cc(C#N)cc23)c1` has an IC50 [1] of 70 nM, an EC50 [2] of 3900 nM and a CC50 (MT2) of 31000 nM.
`N#Cc1ccc2c(Oc3ccccc3OCCC(=O)N3CCCC3)cccc2c1` showed an IC50 [1] of 20 nM, an EC50 [2] of 14 nM and a CC50 (MT2) of 20000 nM.
`CN(CCc1ccc(Cl)c(Oc2cc(Cl)cc(C#N)c2)c1)C(=O)CCl` gave an IC50 [1] of 4400 nM and a CC50 (MT2) of 470 nM.
Work on `C=CS(=O)(=O)c1cccc(CCOc2cc(Cl)ccc2Oc2cc(Cl)cc(C#N)c2)c1` yielded an IC50 [1] of 9000 nM and a CC50 (MT2) of 16000 nM.
For `C=CC(=O)N(C)CCOc1cc(Cl)ccc1Oc1cccn2cc(C#N)cc12`, the IC50 [1] was 26 nM, the EC50 [2] was 28 nM and the CC50 (MT2) was 30000 nM.
In the case of `C=CC(=O)N(C)CCOc1ccc(Cl)c(Oc2cc(Cl)cc(C#N)c2)c1`, the IC50 [1] is reported as 750 nM, the EC50 [2] is reported as 10000 nM and the CC50 (MT2) is reported as 17000 nM.
`N#Cc1cc(Cl)cc(Oc2cc(OCCNC(=O)CCl)ccc2Cl)c1` showed an IC50 [1] of 2750 nM and a CC50 (MT2) of 5800 nM.
With `N#Cc1cc(Cl)cc(Oc2cc(CCNC(=O)CCl)ccc2Cl)c1` the IC50 [1] was 750 nM and the CC50 (MT2) was 2700 nM.
Work on `C=CS(=O)(=O)CCOc1ccc(Cl)c(Oc2cc(Cl)cc(C#N)c2)c1` yielded an IC50 [1] of 8000 nM, an EC50 [2] of 5700 nM and a CC50 (MT2) of 7500 nM.
Work on `C=CC(=O)N(C)CCOc1ccccc1Oc1cc(Cl)cn2cc(C#N)cc12` yielded an IC50 [1] of 20 nM, an EC50 [2] of 48 nM and a CC50 (MT2) of 33000 nM.
`C=CS(=O)(=O)CCc1ccc(Cl)c(Oc2cc(Cl)cc(C#N)c2)c1` showed an IC50 [1] of 100000 nM and a CC50 (MT2) of 6000 nM.
`N#Cc1cc2c(Oc3ccccc3OCCC(=O)N3CCCC3)cccn2c1` gave an IC50 [1] of 20 nM, an EC50 [2] of 17 nM and a CC50 (MT2) greater than 100000 nM.
Compound `N#Cc1cc2c(Oc3ccccc3OCCC(=O)NCC(F)F)cccn2c1` has an IC50 [1] of 1300 nM, an EC50 [2] of 2100 nM and a CC50 (MT2) greater than 100000 nM.
`C=CC(=O)N(C)CCOc1ccccc1Oc1cccc2cc(C#N)ccc12` gave an IC50 [1] of less than 10 nM, an EC50 [2] of 1 nM and a CC50 (MT2) of 4000 nM.
`C=CC(=O)Nc1cccc(COc2cc(Cl)ccc2Oc2cc(Cl)cc(C#N)c2)c1` gave an IC50 [1] of 900 nM and a CC50 (MT2) of 19000 nM.
In the case of `C=CC(=O)Nc1cccc(CCOc2cc(Cl)ccc2Oc2cc(Cl)cc(C#N)c2)c1`, the IC50 [1] is reported as 60 nM, the EC50 [2] is reported as 3600 nM and the CC50 (MT2) is reported as 17000 nM.
`C=CC(=O)N(C)CCOc1ccccc1Oc1cccn2cc(C#N)cc12` gave an IC50 [1] of less than 10 nM, an EC50 [2] of 3 nM and a CC50 (MT2) of 8800 nM.
`C=CC(=O)N(C)CCc1ccc(Cl)c(Oc2cc(Cl)cc(C#N)c2)c1` showed an IC50 [1] of 500 nM, an EC50 [2] of 6200 nM and a CC50 (MT2) of 50000 nM.
`N#Cc1cc(Cl)cc(Oc2ccc(Cl)cc2OCCc2cccc(S(=O)(=O)F)c2)c1` gave an IC50 [1] of 150 nM, an EC50 [2] of 45000 nM and a CC50 (MT2) of 70000 nM.
`C=CC(=O)NCCOc1cc(Cl)ccc1Oc1cc(Cl)cc(C#N)c1` showed an IC50 [1] of 60000 nM, an EC50 [2] of 12500 nM and a CC50 (MT2) of 42000 nM.
